Patent US6500858B2, “Taxoid anti-tumor agents and pharmaceutical compositions thereof” (The Research Foundation of the state University of New York, priority 1994, dated 2002)
pIC50: −log10 of the molar value. Values joined by “and” are separate entries in the source; they are usually repeats but may differ in a detail not shown here. Equal values may be shown once. Read-outs that look alike come from different tables or passages of the source.

Key:
[1] = system: LCC6-WT: human breast carcinoma; assay: cytotoxicity assay of second generation taxoids; type: cell-based; conditions: 72 h drug exposure; read-out: LCC6-WT IC50
Protocol: A cytotoxicity assay of these new second generation taxoids was performed on human breast cancer cell lines, LCC6-WT and LCC-MDR, and selected taxoids were also assayed for their potency against MCF7 and MCF7-R (Skehan, P., et al., J. Nat. Cancer Inst. 1990, 82, 1107-1112).

[2] = system: docetaxel-resistant melanoma, B16/TXT; assay: intravenous administration to B16/TXT melanoma-bearing mice; type: in vivo, B6D2F1 female mice; conditions: days 3, 5, 7
Protocol: (§1) The efficacy of the test compounds on solid tumors in vivo was determined experimentally according to the following general experimental protocol:
(§2) The mice subjected to the experiment were subcutaneously grafted bilaterally with 30 to 60 mg of a tumor fragment on day zero. Mice bearing tumors were mixed before being subjected to the various treatments and controls. In the case of treatment of advanced tumors, tumors were allowed to develop to the desired size, and mice having insufficiently developed tumors were eliminated. The selected mice were distributed at random to undergo the treatments and controls. Mice not bearing tumors may also be subjected to the same treatments as the tumor-bearing mice in order to be able to dissociate the toxic effect from the specific effect on the tumor. Chemotherapy generally began from 3 to 22 days after grafting, depending on the type of tumor, and the mice were observed every day. The different mice groups were weighed 3 or 4 times a week until the maximum weight loss was attained (nadir), and the groups were then weighed at least once a week until the end of the trial.
(§3) The tumors were measured 2 or 3 times a week until the tumor reached approximately 2 grams, or until the animal died, if this occurred before the tumor reached 2 grams. The mice were autopsied when sacrificed.
(§4) The antitumor activity was determined in accordance with different parameters recorded such as dose (mg/kg), mode of administration, time of administration, cytotoxicity, toxicity and log10 cell kill.
SB-T-1213, SB-T-121303, SB-T-121304 and SB-T-1250 were evaluated in B6D2F1 female mice bearing the docetaxel-resistant melanoma, B16/TXT. The general experimental protocol was as described above. The compounds evaluated were administered intravenously on an intermittent schedule on days 3, 5, and 7 post tumor implantation.

[3] = system: B16 melanoma; assay: intravenous administration to mice bearing B16 melanoma; type: in vivo, B6D2F1 female mice; parameters: key to Responses (activity rating): A = active; HA = highly active
Protocol: as §1, §2, §3, §4
SB-T-1213, SB-T-121303, SB-T-121304 and SB-T-1250 were evaluated in B6D2F1 female mice bearing B16 melanoma. The general experimental protocol was as described above. The compounds evaluated were administered intravenously (iv) on an intermittent schedule on days 3, 5, and 7 post tumor implantation. With the exception of SB-T-1250, solutions of the compounds for administration were prepared in 5% ethanol, 5% polysorbate 80, and 90% glucose 5% water.

[4] = system: MCF7-R (mammary carcinoma cells 180-fold resistant to adriamycin); assay: tumor cell growth inhibition (SRB, 72 h drug exposure); type: cell-based, human
Protocol: (§5) Lower numbers indicate higher potency. […] The data represent the mean values of at least three separate experiments. Lower numbers indicate greater activity.
(§6) Assessment of cell growth inhibition was determined according to the methods of Skehan et al., J. Nat. Cancer Inst. […] Briefly, cells were plated between 400 and 1200 cells/well in 96 well plates and incubated at 37° C. for 15-18 h prior to drug addition to allow attachment of cells. […] After a 72 h incubation, […] of ice-cold 50% TCA was added to each well and incubated for 1 h at 4° C. Plates were then washed 5 times with tap water to remove TCA, low-molecular-weight metabolites and serum proteins. Sulforhodamine B (SRB) (0.4%, […]) was added to each well. Following a 5 min incubation at room temperature, plates were rinsed 5 times with 0.1% acetic acid and air dried. […] Optical density was measured at 570 nm.

[5] = system: MCF7 (mammary carcinoma); assay: as above; type: cell-based, human; conditions: read-out: MCF7 IC50
Protocol: as §5, §6

| pIC50 ([4]; Table 2) | pIC50 ([5]; Table 2) | Compound | pIC50 [1] | other results |
| --- | --- | --- | --- | --- |
|  |  | 3′-Dephenyl-3′-(2-methylprop-1-enyl)-2-debenzoyl-2-(3-methoxybenzoyl)-10-cyclopropyldocetaxel [Taxoid 7m] | 9.00 |  |
|  |  | CCC(=O)O[C@H]1C(=O)[C@@]2(C)[C@H]([C@H](OC(=O)c3cccc(OC)c3)[C@]3(O)C[C@H](OC(=O)[C@H](O)[C@H](C=C(C)C)NC(=O)OC(C)(C)C)C(C)=C1C3(C)C)[C@]1(OC(C)=O)CO[C@@H]1C[C@@H]2O [SB-T-121303] |  | T/C ([2]; 0.7 mg/kg/adm.): 94%; drug related deaths (DD) ([2]; 1.9 mg/kg/adm.): ⅕; drug related deaths (DD) ([2]; 3.2 mg/kg/adm.): 100%; highest nontoxic dose [2]: 1.2 mg/kg/adm.; Responses (activity rating) ([3]; 1.9 mg/kg/adm.): A; T/C ([3]; 1.9 mg/kg/adm., days 3, 5, 7): 12%; log10 cell kill ([3]; 1.9 mg/kg/adm., days 3, 5, 7): 1.7; % body weight loss at nadir ([3]; 1.9 mg/kg/adm., days 3, 5, 7, 1.9 mg/kg): 16.9% and 16.9 (13) %; drug related deaths (DD) ([3]; 3.2 mg/kg/adm., days 3, 5, 7): 100%; highest nontoxic dose ([3]; days 3, 5, 7): 1.9 mg/kg/adm. |
|  |  | CCC(=O)OC1C(=O)C2(C)C(O)CC3OCC3(OC(C)=O)C2C(OC(=O)c2cccc(F)c2)C2(O)CC(OC(=O)C(O)C(CC(C)C)NC(=O)OC(C)(C)C)C(C)=C1C2(C)C (stereo not drawn) [Taxoid 7a, 3′-Dephenyl-3′-(2-methylpropyl)-2-debenzoyl-2-(3-fluorobenzoyl)-10-propanoyldocetaxel] | 9.40 |  |
|  |  | CCC(=O)OC1C(=O)C2(C)C(O)CC3OCC3(OC(C)=O)C2C(OC(=O)c2cccc(F)c2)C2(O)CC(OC(=O)C(O)C(C=C(C)C)NC(=O)OC(C)(C)C)C(C)=C1C2(C)C (stereo not drawn) [Taxoid 7b, 3′-Dephenyl-3′-(2-methylprop-1-enyl)-2-debenzoyl-2-(3-fluorobenzoyl)-10-propanoyldocetaxel] | 9.30 |  |
|  |  | CCC(=O)OC1C(=O)C2(C)C(O)CC3OCC3(OC(C)=O)C2C(OC(=O)c2cccc(Cl)c2)C2(O)CC(OC(=O)C(O)C(C=C(C)C)NC(=O)OC(C)(C)C)C(C)=C1C2(C)C (stereo not drawn) [Taxoid 7d, 3′-Dephenyl-3′-(2-methylprop-1-enyl)-2-debenzoyl-2-(3-chlorobenzoyl)-10-propanoyldocetaxel] | 9.10 |  |
|  |  | CCC(=O)OC1C(=O)C2(C)C(O)CC3OCC3(OC(C)=O)C2C(OC(=O)c2cccc(OC)c2)C2(O)CC(OC(=O)C(O)C(NC(=O)OC(C)(C)C)C(F)F)C(C)=C1C2(C)C (stereo not drawn) [Taxoid 7g, 3′-Dephenyl-3′-difluoromethyl-2-debenzoyl-2-(3-methoxybenzoyl)-10-propanoyldocetaxel] | 8.82 | pIC50 ([4]; 72 h drug exposure, Table 3): 8.37; pIC50 ([5]; 72 h drug exposure, Table 3): 9.40 |
|  |  | C=CCCC(NC(=O)OC(C)(C)C)C(O)C(=O)OC1CC2(O)C(OC(=O)c3cccc(OC)c3)C3C4(OC(C)=O)COC4CC(O)C3(C)C(=O)C(OC(=O)CC)C(=C1C)C2(C)C (stereo not drawn) [Taxoid 7h, 3′-Dephenyl-3′-(3-butenyl)-2-debenzoyl-2-(3-methoxybenzoyl)-10-propanoyldocetaxel] | 9.05 | pIC50 ([4]; 72 h drug exposure, Table 3): 8.11; pIC50 ([5]; 72 h drug exposure, Table 3): 8.70 |
|  |  | C=CCC(NC(=O)OC(C)(C)C)C(O)C(=O)OC1CC2(O)C(OC(=O)c3cccc(OC)c3)C3C4(OC(C)=O)COC4CC(O)C3(C)C(=O)C(OC(=O)CC)C(=C1C)C2(C)C (stereo not drawn) [Taxoid 7i, 3′-Dephenyl-3′-(2-propenyl)-2-debenzoyl-2-(3-methoxybenzoyl)-10-propanoyldocetaxel] | 8.92 | pIC50 ([4]; 72 h drug exposure, Table 3): 8.06; pIC50 ([5]; 72 h drug exposure, Table 3): 9.10 |
|  |  | CCC(=O)OC1C(=O)C2(C)C(O)CC3OCC3(OC(C)=O)C2C(OC(=O)c2cccc(OC)c2)C2(O)CC(OC(=O)C(O)C(NC(=O)OC(C)(C)C)[C@H]3CC3(C)C)C(C)=C1C2(C)C (stereo partly drawn) [Taxoid 7j, 3′-Dephenyl-3′-[(S)-2,2-dimethylcyclopropyl]-2-debenzoyl-2-(3-methoxybenzoyl)-10-propanoyldocetaxel] | 9.32 | pIC50 ([4]; 72 h drug exposure, Table 3): 8.82; pIC50 ([5]; 72 h drug exposure, Table 3): 9.22 |
|  |  | C/C=C/C(NC(=O)OC(C)(C)C)C(O)C(=O)OC1CC2(O)C(OC(=O)c3cccc(OC)c3)C3C4(OC(C)=O)COC4CC(O)C3(C)C(=O)C(OC(=O)CC)C(=C1C)C2(C)C (stereo not drawn) [Taxoid 7k, 3′-Dephenyl-3′-[(E)-prop-1-enyl]-2-debenzoyl-2-(3-methoxybenzoyl)-10-propanoyldocetaxel] | 8.92 |  |
|  |  | C=Cc1cccc(C(=O)OC2C3C4(OC(C)=O)COC4CC(O)C3(C)C(=O)C(OC(=O)CC)C3=C(C)C(OC(=O)C(O)C(C=C(C)C)NC(=O)OC(C)(C)C)CC2(O)C3(C)C)c1 (stereo not drawn) [Taxoid 7p, 3′-Dephenyl-3′-(2-methylprop-1-enyl)-2-debenzoyl-2-(3-ethenylbenzoyl)-10-propanoyldocetaxel] | 8.54 |  |
| 8.55 | 9.46 | CCC(=O)OC1C(=O)C2(C)C(O)CC3OCC3(OC(C)=O)C2C(OC(=O)c2ccccc2)C2(O)CC(OC(=O)C(O)C(CC(C)C)NC(=O)OC(C)(C)C)C(C)=C1C2(C)C (stereo not drawn) [Taxoid Ib′, 3′-dephenyl-3′-(2-methylpropyl)-10-propanoyldocetaxel] |  |  |
| 8.36 | 9.29 | CC(=O)OC12COC1CC(O)C1(C)C(=O)C(OC(=O)C3CC3)C3=C(C)C(OC(=O)C(O)C(CC(C)C)NC(=O)OC(C)(C)C)CC(O)(C(OC(=O)c4ccccc4)C21)C3(C)C (stereo not drawn) [Taxoid Ic′, 3′-Dephenyl-3′-(2-methylpropyl)-10-cyclopropanecarbonyldocetaxel] |  |  |
| 8.47 | 9.59 | CC=CC(=O)OC1C(=O)C2(C)C(O)CC3OCC3(OC(C)=O)C2C(OC(=O)c2ccccc2)C2(O)CC(OC(=O)C(O)C(C=C(C)C)NC(=O)OC(C)(C)C)C(C)=C1C2(C)C (stereo not drawn) [Taxoid Id, 3′-Dephenyl-3′-(2-methyl-1-propenyl)-10-crotonoyldocetaxel] |  |  |
| 8.31 | 9.89 | CC(=O)OC12COC1CC(O)C1(C)C(=O)C(OC(=O)N(C)C)C3=C(C)C(OC(=O)C(O)C(C=C(C)C)NC(=O)OC(C)(C)C)CC(O)(C(OC(=O)c4ccccc4)C21)C3(C)C (stereo not drawn) [Taxoid Ie, 3′-Dephenyl-3′-(2-methyl-1-propenyl)-O-N,N-dimethylcarbamoyldocetaxel] |  |  |
| 8.24 | 9.44 | CC(=O)OC12COC1CC(O)C1(C)C(=O)C(OC(=O)N(C)C)C3=C(C)C(OC(=O)C(O)C(CC(C)C)NC(=O)OC(C)(C)C)CC(O)(C(OC(=O)c4ccccc4)C21)C3(C)C (stereo not drawn) [Taxoid Ie′, 3′-Dephenyl-3′-(2-methylpropyl)-10-N,N-dimethylcarbamoyldocetaxel] |  |  |
| 8.28 | 9.85 | COC(=O)OC1C(=O)C2(C)C(O)CC3OCC3(OC(C)=O)C2C(OC(=O)c2ccccc2)C2(O)CC(OC(=O)C(O)C(C=C(C)C)NC(=O)OC(C)(C)C)C(C)=C1C2(C)C (stereo not drawn) [Taxoid If, 3′-Dephenyl-3′-(2-methyl-1-propenyl)-10-methoxycarbonyldocetaxel] |  |  |
| 8.20 | 9.32 | COC(=O)OC1C(=O)C2(C)C(O)CC3OCC3(OC(C)=O)C2C(OC(=O)c2ccccc2)C2(O)CC(OC(=O)C(O)C(CC(C)C)NC(=O)OC(C)(C)C)C(C)=C1C2(C)C (stereo not drawn) [Taxoid If′, 3′-Dephenyl-3′-(2-methylpropyl)-10-methoxycarbonyldocetaxel] |  |  |

| Compound | pIC50 ([4]; Table 2) | pIC50 ([5]; Table 2) | pIC50 [1] | other results |
| --- | --- | --- | --- | --- |
| CC(=O)OC12COC1CC(O)C1(C)C(=O)C(OC(=O)C3CC3)C3=C(C)C(OC(=O)C(O)C(C=C(C)C)NC(=O)OC(C)(C)C)CC(O)(C(OC(=O)c4ccccc4)C21)C3(C)C (stereo not drawn) [Taxoid Ic, 3′-Dephenyl-3′-(2-methyl-1-propenyl)-10-cyclopropanecarbonyldocetaxel] | 8.68 | 9.70 |  | times better activity than paclitaxel and docetaxel against drug-resistant human breast cells ([4]; MCF7-R): 142 times |
